Patent US20100203043A1, “TREATMENT AND DIAGNOSIS OF METASTATIC PROSTATE CANCER WITH INHIBITORS OF EPIDERMAL GROWTH FACTOR RECEPTOR (EGFR)” (priority 2007, published 2010)

Tested on: LNCaP cells
Experiment: Kinase activity profiling (PamChip peptide arrays) of LNCaP cells treated with synthetic androgen analog
Type: cell-based, human
Set-up: key to ZAP70_y492/y493 phosphopeptide fold change (log2) relative to LNCaP baseline / RASA_y460 phosphopeptide fold change (log2) relative to LNCaP baseline / RET_y1029 phosphopeptide fold change (log2) relative to LNCaP baseline / IRS2_y919 phosphopeptide fold change (log2) relative to LNCaP baseline / JAK1_y1022/y1023 phosphopeptide fold change (log2) relative to LNCaP baseline / LCK_y394 phosphopeptide fold change (log2) relative to LNCaP baseline / MET_y1230/y1234/y1235 phosphopeptide fold change (log2) relative to LNCaP baseline / PDPK1_y9 phosphopeptide fold change (log2) relative to LNCaP baseline / PDPK1_y373/y376 phosphopeptide fold change (log2) relative to LNCaP baseline / EPHB1_y778 phosphopeptide fold change (log2) relative to LNCaP baseline / ERBB2_y877 phosphopeptide fold change (log2) relative to LNCaP baseline / ERBB2_y1248 phosphopeptide fold change (log2) relative to LNCaP baseline / CDK2_t14/y_5 phosphopeptide fold change (log2) relative to LNCaP baseline / DDRl_y792/y796/y797 phosphopeptide fold change (log2) relative to LNCaP baseline / MAPK10 phosphopeptide fold change (log2) relative to LNCaP baseline / MAPK12_t183/y185 phosphopeptide fold change (log2) relative to LNCaP baseline / PECAM1_y713 phosphopeptide fold change (log2) relative to LNCaP baseline / PRRX2_y214 phosphopeptide fold change (log2) relative to LNCaP baseline / ANXA1_y20/t23 phosphopeptide fold change (log2) relative to LNCaP baseline / CD79A_y182/y188 phosphopeptide fold change (log2) relative to LNCaP baseline / CTTN1_y477/y483 phosphopeptide fold change (log2) relative to LNCaP baseline / CTTN1_y499 phosphopeptide fold change (log2) relative to LNCaP baseline / ENO2_y43 phosphopeptide fold change (log2) relative to LNCaP baseline / EPHA2_y772 phosphopeptide fold change (log2) relative to LNCaP baseline / EPHA7_y608/y614 phosphopeptide fold change (log2) relative to LNCaP baseline / EPOR_y368 phosphopeptide fold change (log2) relative to LNCaP baseline / EPOR_y426 phosphopeptide fold change (log2) relative to LNCaP baseline / FER_y714 phosphopeptide fold change (log2) relative to LNCaP baseline / FES_y713 phosphopeptide fold change (log2) relative to LNCaP baseline / FGFR2_y769 phosphopeptide fold change (log2) relative to LNCaP baseline / FGFR3_y760 phosphopeptide fold change (log2) relative to LNCaP baseline / FRK_y387 phosphopeptide fold change (log2) relative to LNCaP baseline / LAT_y255 phosphopeptide fold change (log2) relative to LNCaP baseline / EGFR_y1110 phosphopeptide fold change (log2) relative to LNCaP baseline / NTRK2_y702/y706/y707 phosphopeptide fold change (log2) relative to LNCaP baseline / PDGFRB_y579/y581 phosphopeptide fold change (log2) relative to LNCaP baseline / PDGFRB_y716 phosphopeptide fold change (log2) relative to LNCaP baseline / PIK3R1_y607/s608 phosphopeptide fold change (log2) relative to LNCaP baseline / PXN_y31 phosphopeptide fold change (log2) relative to LNCaP baseline / PXN_y118 phosphopeptide fold change (log2) relative to LNCaP baseline / TEC_y519 phosphopeptide fold change (log2) relative to LNCaP baseline / MST1R_y1353 phosphopeptide fold change (log2) relative to LNCaP baseline / MST1R_y1356/y1360 phosphopeptide fold change (log2) relative to LNCaP baseline / FAK_y576/y577 phosphopeptide fold change (log2) relative to LNCaP baseline / FAK2_y579/y580 phosphopeptide fold change (log2) relative to LNCaP baseline / LAT_y200 phosphopeptide fold change (log2) relative to LNCaP baseline: —: ‘-’ denotes that the change in peptide phosphorylation level was not found to be significant
Conditions: ‘androgenic’: LNCaP cells, 100 nM R1881, 48 h
Procedure: Cell culture conditions. The LNCaP and OHS cell lines were routinely held in RPMI 1640 medium supplemented with 10% fetal bovine serum (FBS) and 2.0 mM glutamine, defined as growth medium. Different ratios of LNCaP cells to OHS cells had been tested in a series of cocultures to find the optimal culturing conditions [Bratland et al., 2003]. Seventy-two hours before start of experimental incubations, LNCaP and OHS cells were seeded in a 10:1 ratio in RPMI containing 2% charcoal-treated FBS and glutamine. After 48 h, this medium was changed to RPMI containing 0.5% charcoal-treated FBS and glutamine, defined as experimental medium, for another 24 h before experimental incubations were started (at time 0). Monocultures of LNCaP cells were identically incubated prior to experimental incubations.
Monocultures of LNCaP, as well as LNCaP/OHS cocultures, were seeded in a total number of 1.0×10^6 cells in 75 cm2 cell flasks and invariably held in 10 ml medium throughout different incubations. At time 0 (start of the experimental incubations), monocultured LNCaP cells were refed with experimental medium supplemented with 100 nM R1881 (methyltrienolone; Life Science Products), a synthetic androgen analog, or with medium conditioned by OHS cells. The conditioned medium had been collected from OHS monocultures that had been seeded in a 10-fold higher number per volume medium compared to the corresponding cell number of the LNCaP/OHS cocultures, and grown for 48 h (relative to time 0) in experimental medium. This medium was subsequently diluted 1:10 in either fresh experimental medium or in medium obtained from standard LNCaP monocultures after 48 h of incubation (relative to time 0) in experimental medium, before the application onto monocultured LNCaP cells.
To be able to analyze LNCaP signaling pathways activated by direct contact with OHS cells, LNCaP cells were isolated from cocultures by immunomagnetic selection [Forus et al., 1999, Fodstad et al., 2001, Bruland et al., 2005, Tveito et al., 2007]. This rapid and simple procedure enables specific selection of target cells for further analytical applications. Subsequent multiplex profiling of kinase activity was performed using flow-through, porous microarrays with peptide substrates (PamChip® peptide arrays; PamGene International B.V., www.pamgene.com), a novel platform that allows rapid, real-time measurements of phosphopeptide signatures generated by the biological samples.
Androgens are critical regulators of prostate carcinoma progression. Most patients respond to androgen ablation therapy, but only temporarily, also at bone metastasis sites. Until recently, the regulatory program mediated by the androgen receptor in prostate cancer has been elusive [Dehm & Tindall, 2006]. To simulate the complex processes involved in aberrant activation of the androgen signaling axis upon disease progression of prostate cancer [Feldman & Feldman, 2001, Attard et al., 2006], our experimental setting included LNCaP cells treated with a synthetic androgen analog (R1881, 100 nM) to observe whether androgen receptor-mediated signaling pathways might be different from those activated by OHS-directed influence.
The LNCaP samples were given denotations in accordance with their biological context: ‘direct’ (cells from LNCaP/OHS cocultures), ‘paracrine 1’ (cells treated with OHS-conditioned medium mixed with fresh medium), ‘paracrine 2’ (cells treated with OHS-conditioned medium mixed with medium conditioned by LNCaP cells), and ‘androgenic’ (cells treated with the synthetic androgen analog), in addition to baseline (untreated reference cells).
To identify regulatory mechanisms underlying the affinity of prostate cancer to bone, the substrate phosphorylation state generated by each LNCaP entity (‘direct’, ‘paracrine’, ‘androgenic’) was calculated with respect to baseline. […]

For `C[C@]1(O)CC[C@H]2[C@@H]3CCC4=CC(=O)CCC4=C3C=C[C@@]21C` [R1881, methyltrienolone], the “ANXA1_y20/t23 phosphopeptide fold change (log2) relative to LNCaP baseline” value was “—”, the “CD79A_y182/y188 phosphopeptide fold change (log2) relative to LNCaP baseline” value was “—” and the “CDK2_t14/y_5 phosphopeptide fold change (log2) relative to LNCaP baseline” value was “—”. For the same compound, the “CHRNB1_y390 phosphopeptide fold change (log2) relative to LNCaP baseline” value was 1.57 fold change (log2), the “CREBl_y134/s133 phosphopeptide fold change (log2) relative to LNCaP baseline” value was 1.47 fold change (log2) and the “CTTN1_y477/y483 phosphopeptide fold change (log2) relative to LNCaP baseline” value was “—”. The “CTTN1_y499 phosphopeptide fold change (log2) relative to LNCaP baseline” value was “—”, the “DDRl_y792/y796/y797 phosphopeptide fold change (log2) relative to LNCaP baseline” value was “—” and the “EGFR_y1110 phosphopeptide fold change (log2) relative to LNCaP baseline” value was “—”. For the same compound, the “EGFR_y1197 phosphopeptide fold change (log2) relative to LNCaP baseline” value was 1.94 fold change (log2), the “ENO2_y43 phosphopeptide fold change (log2) relative to LNCaP baseline” value was “—” and the “EPHA2_y772 phosphopeptide fold change (log2) relative to LNCaP baseline” value was “—”. For the same compound, the “EPHA7_y608/y614 phosphopeptide fold change (log2) relative to LNCaP baseline” value was “—”, the “EPHB1_y778 phosphopeptide fold change (log2) relative to LNCaP baseline” value was “—” and the “EPOR_y368 phosphopeptide fold change (log2) relative to LNCaP baseline” value was “—”. For the same compound, the “EPOR_y426 phosphopeptide fold change (log2) relative to LNCaP baseline” value was “—”, the “ERBB2_y877 phosphopeptide fold change (log2) relative to LNCaP baseline” value was “—” and the “ERBB2_y1248 phosphopeptide fold change (log2) relative to LNCaP baseline” value was “—”. For the same compound, the “ERBB4_y1284 phosphopeptide fold change (log2) relative to LNCaP baseline” value was 3.31 fold change (log2), the “FAK2_y579/y580 phosphopeptide fold change (log2) relative to LNCaP baseline” value was “—” and the “FAK_y576/y577 phosphopeptide fold change (log2) relative to LNCaP baseline” value was “—”. The “FER_y714 phosphopeptide fold change (log2) relative to LNCaP baseline” value was “—”, the “FES_y713 phosphopeptide fold change (log2) relative to LNCaP baseline” value was “—” and the “FGFR2_y769 phosphopeptide fold change (log2) relative to LNCaP baseline” value was “—”. The “FGFR3_y760 phosphopeptide fold change (log2) relative to LNCaP baseline” value was “—”, the “FRK_y387 phosphopeptide fold change (log2) relative to LNCaP baseline” value was “—” and the “GSK3B_y216 phosphopeptide fold change (log2) relative to LNCaP baseline” value was 1.15 fold change (log2). The “IRS2_y919 phosphopeptide fold change (log2) relative to LNCaP baseline” value was “—”, the “JAK1_y1022/y1023 phosphopeptide fold change (log2) relative to LNCaP baseline” value was “—” and the “LAT_y200 phosphopeptide fold change (log2) relative to LNCaP baseline” value was “—”. The “LAT_y255 phosphopeptide fold change (log2) relative to LNCaP baseline” value was “—”, the “LCK_y394 phosphopeptide fold change (log2) relative to LNCaP baseline” value was “—” and the “LTK_y772/y776/y777 phosphopeptide fold change (log2) relative to LNCaP baseline” value was 1.20 fold change (log2). The “MAPK10 phosphopeptide fold change (log2) relative to LNCaP baseline” value was “—”, the “MAPK12_t183/y185 phosphopeptide fold change (log2) relative to LNCaP baseline” value was “—” and the “MET_y1230/y1234/y1235 phosphopeptide fold change (log2) relative to LNCaP baseline” value was “—”. The “MST1R_y1353 phosphopeptide fold change (log2) relative to LNCaP baseline” value was “—”, the “MST1R_y1356/y1360 phosphopeptide fold change (log2) relative to LNCaP baseline” value was “—” and the “NTRK2_y702/y706/y707 phosphopeptide fold change (log2) relative to LNCaP baseline” value was “—”. For the same compound, the “PDGFRB_y579/y581 phosphopeptide fold change (log2) relative to LNCaP baseline” value was “—”, the “PDGFRB_y716 phosphopeptide fold change (log2) relative to LNCaP baseline” value was “—” and the “PDPK1_y9 phosphopeptide fold change (log2) relative to LNCaP baseline” value was “—”. For the same compound, the “PDPK1_y373/y376 phosphopeptide fold change (log2) relative to LNCaP baseline” value was “—”, the “PECAM1_y713 phosphopeptide fold change (log2) relative to LNCaP baseline” value was “—” and the “PFKFB1_s33 phosphopeptide fold change (log2) relative to LNCaP baseline” value was 1.36 fold change (log2). The “PIK3R1_y607/s608 phosphopeptide fold change (log2) relative to LNCaP baseline” value was “—”, the “PRRX2_y214 phosphopeptide fold change (log2) relative to LNCaP baseline” value was “—” and the “PTPN11_y542 phosphopeptide fold change (log2) relative to LNCaP baseline” value was 2.94 fold change (log2). For the same compound, the “PXN_y31 phosphopeptide fold change (log2) relative to LNCaP baseline” value was “—”, the “PXN_y118 phosphopeptide fold change (log2) relative to LNCaP baseline” value was “—” and the “RAF1_s337/s338/y339/y340 phosphopeptide fold change (log2) relative to LNCaP baseline” value was 1.14 fold change (log2). For the same compound, the “RASA_y460 phosphopeptide fold change (log2) relative to LNCaP baseline” value was “—”, the “RB1_s807/s811 phosphopeptide fold change (log2) relative to LNCaP baseline” value was 3.07 fold change (log2) and the “RET_y1029 phosphopeptide fold change (log2) relative to LNCaP baseline” value was “—”. The “SYN1_s9 phosphopeptide fold change (log2) relative to LNCaP baseline” value was 1.20 fold change (log2), the “TEC_y519 phosphopeptide fold change (log2) relative to LNCaP baseline” value was “—” and the “ZAP70_y492/y493 phosphopeptide fold change (log2) relative to LNCaP baseline” value was “—”.
